Measurements as given in PMC5503534, “Stable aneuploid tumors cells are more sensitive to TTK inhibition than chromosomally unstable cell lines” (Oncotarget, 2017).
Read-outs that look alike come from different tables or passages of the source.

Assays:
[1] = test system: post-tetraploid HPT1 cells; assay: Cell proliferation assay, post-tetraploid HPT1; format: cell-based, human; conditions: HPT1, five days; for Efficacy (%): average of three experiments; for IC50: geometric average of three experiments
Protocol: (§1) Cancer cell lines and hTERT-RPE1 retinal pigment epithelial cells were purchased from the American Type Culture Collection (ATCC) (Manassas, VA, U.S.A.) from 2011 to 2014 [41] and cultured in ATCC-recommended media. All experiments were carried out within nine passages of the original vials from ATCC who authenticated the cancer cell lines by short tandem repeat analysis. We verified the mutant status of seven frequently mutated cancer genes (i.e., BRAF, CDKN2A, CTNNB1, EGFR, KRAS, PIK3CA and TP53) by full exome or targeted sequencing. Sequencing results were compared to COSMIC version 75 of the Genomics of Drug Sensitivity in Cancer data base and provided additional authentication of the identity of the cell lines. The isolation and characterization of post-tetraploid clones from HCT 116 has been described previously. The mutation status of the CDKN2A, CTNNB1, KRAS and PIK3CA genes were confirmed by sequence analysis in both the HCT 116 parental cell line and post-tetraploid clones. All experiments were carried out within nine passages of the original cell stocks that were transferred from the Max Planck Institute of Biochemistry (Martinsried, Germany) to Netherlands Translational Research Center.
(§2) Cell proliferation assays were carried out as described using ATPlite 1step™ (Perkin Elmer, Groningen, The Netherlands). Exposure time was 72 or 120 hours as indicated in the Legends to the Figures. Percentage growth was calculated, relative to the growth of unexposed cells, and relative IC50s were fitted using a four-parameter logistics curve (XLfit 5.3, IDBS). For Figure 4A and 7 dose response curves were redrawn in Prism. To compare the inhibitory potency of compounds in proliferation assays with HCT 116 parental and tetraploid clones, pIC50 (−^10logIC50) values were compared in three independent experiments. A two-tailed Student's t-test was performed to determine whether differences in sensitivity (ΔpIC50) were statistically significant. Caspase 3/7 activity of cancer cells was measured using Caspase-Glo 3/7 Assay kit (cat no. G8093, Promega, Madison USA). Viability of T-ALL cell samples was determined using ATPlite and exposure of 72 hours as described previously.

[2] = test system: post-tetraploid HPT2 cells; assay: Cell proliferation assay, post-tetraploid HPT2; format: cell-based, human; conditions: HPT2, five days; for Efficacy (%): average of three experiments; for IC50: geometric average of three experiments
Protocol: as §1, §2

[3] = test system: HCT 116 vs HPT1, -2 and -4; assay: Drug sensitivity analysis, HCT116 diploid versus tetraploids; format: cell-based, human; conditions: for Δeff. (%) / Phenotype (potency): HCT 116 vs HPT1, -2 and -4; for Phenotype (efficacy): HCT 116 vs HPT1, -2 and -4, based on % effect; for Phenotype (potency): 'resistant' indicates that tetraploids are resistant; for ΔpIC50: average log shift in sensitivity between parental and tetraploids
Protocol: as §2

[4] = test system: post-tetraploid HPT4 cells; assay: Cell proliferation assay, post-tetraploid HPT4; format: cell-based, human; conditions: HPT4, five days; for Efficacy (%): average of three experiments; for IC50: geometric average of three experiments
Protocol: as §1, §2

[5] = test system: HCT 116 colon carcinoma cell line; assay: Cell proliferation assay (ATPlite), HCT 116; format: cell-based, human; conditions: for Eff. (%): HCT 116, five days, maximum inhibitory effect, average of three experiments; for IC50: HCT 116 near-diploid, five days, geometric average of three experiments (Suppl. Table 2A)
Protocol: as §2

[6] = test system: DoTc2 4510 cervix carcinoma cell line; conditions: three day cell proliferation assay; cited from earlier work
[7] = test system: HCT 116 colon carcinoma cell line; conditions: three day cell proliferation assay; cited from earlier work
[8] = test system: LoVo colorectal adenocarcinoma cell line; conditions: three day cell proliferation assay; cited from earlier work
[9] = test system: A-172 glioblastoma cell line; conditions: three day cell proliferation assay; cited from earlier work
[10] = test system: MG-63 osteosarcoma cell line; conditions: three day cell proliferation assay; cited from earlier work
[11] = test system: OVCAR-3 ovary adenocarcinoma cell line; conditions: three day cell proliferation assay; cited from earlier work
[12] = mouse, in vivo; cited from earlier work
[13] = test system: pediatric T-ALL patient cell samples; assay: Viability assays with T-ALL patient samples; format: cell-based, human; conditions: Homo sapiens, 72 h
Protocol: Written informed consent was obtained from the parents or legal guardians of each T-ALL patient to use excess diagnostic material for research purposes. The study was performed in accordance with the Institutional Review Board of the Erasmus Medical Center Rotterdam (The Netherlands) and in accordance with the Declaration of Helsinki. Leukemic cells were harvested from blood or bone marrow samples and were enriched to ≥ 90% purity.
as §2

[14] = test system: 66 cancer cell lines (44 cell lines); design: method as in earlier work; conditions: 3 days; geometric average in 44 cell lines; cited from earlier work
[15] = target: T1, full-length Aurora B (Homo sapiens, UniProt Q96GD4); assay: Surface plasmon resonance binding kinetics, Aurora B; conditions: SPR, geometric average
T1 construct: to the kinase domain of TTK and full-length Aurora B; purchased Carna Biosciences, Inc., Kobe, Japan; host or cells: Sf9 insect cells
From the text: Originally, the compound was identified in a phenotypic screen for molecules that can induce stem-cell like phenotypes. Later this property was attributed to its ability to inhibit the mitotic kinase Aurora B [39].

T1 sequence (Q96GD4 whole entry, the tested form may be a part): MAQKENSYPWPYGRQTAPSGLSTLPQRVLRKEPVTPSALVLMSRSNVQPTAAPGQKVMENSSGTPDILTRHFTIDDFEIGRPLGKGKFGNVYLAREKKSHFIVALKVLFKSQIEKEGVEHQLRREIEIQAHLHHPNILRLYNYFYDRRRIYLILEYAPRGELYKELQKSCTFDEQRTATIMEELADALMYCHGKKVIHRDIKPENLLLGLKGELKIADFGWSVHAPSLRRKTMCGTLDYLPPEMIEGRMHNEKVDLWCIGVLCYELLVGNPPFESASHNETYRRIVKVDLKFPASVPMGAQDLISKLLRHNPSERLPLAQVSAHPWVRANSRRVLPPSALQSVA

| SMILES | Efficacy (%) [1] | IC50 ([1]; Homo sapiens, 120 h) | Efficacy (%) [2] | IC50 ([2]; Homo sapiens, 120 h) | Δeff. (%) [3] | Phenotype (efficacy) [3] | Phenotype (potency) [3] | ΔpIC50 [3] | Efficacy (%) [4] | IC50 ([4]; Homo sapiens, 120 h) | Eff. (%) [5] | IC50 ([5]; Homo sapiens, 120 h) | IC50 [6] | IC50 [7] | IC50 [8] | IC50 [9] | IC50 [10] | IC50 [11] | further results |
| --- | --- | --- | --- | --- | --- | --- | --- | --- | --- | --- | --- | --- | --- | --- | --- | --- | --- | --- | --- |
| COc1cccc2c1C(=O)c1c(O)c3c(c(O)c1C2=O)C[C@@](O)(C(=O)CO)C[C@@H]3O[C@H]1C[C@H](N)[C@H](O)[C@H](C)O1 [doxorubicin] | 99% | 0.069 µM | 100% | 0.13 µM | 3% | sensitive | resistant | 0.46 | 100% | 0.083 µM | 97% | 0.031 µM | – | – | – | – | – | – | – |
| CN(C)/N=N/c1[nH]cnc1C(N)=O [dacarbazine] | – | – | – | – | – | – | – | – | – | – | – | – | 3.09 µM | 18.6 µM | 5.29 µM | 31.6 µM | 16 µM | 13.9 µM | – |
| O=C(O)c1ccc(Nc2ncc3c(n2)-c2ccc(Cl)cc2C(c2c(F)cccc2F)=NC3)cc1 [MLN-8054] | 61% | 1.33 µM | 52% | 1.55 µM | −28% | resistant | resistant | 0.28 | 56% | 1.2 µM | 85% | 0.715 µM | – | – | – | – | – | – | – |
| CC(=O)O[C@H]1C(=O)[C@@]2(C)[C@H]([C@H](OC(=O)c3ccccc3)[C@]3(O)C[C@H](OC(=O)[C@H](O)[C@@H](NC(=O)c4ccccc4)c4ccccc4)C(C)=C1C3(C)C)[C@]1(OC(C)=O)CO[C@@H]1C[C@@H]2O [paclitaxel] | – | – | – | – | – | – | – | – | – | – | – | – | 0.01 µM | 0.005 µM | 0.023 µM | 0.017 µM | 0.006 µM | 0.026 µM | – |
| CCn1cc(-c2ccnc3[nH]c(-c4cccc(CN(C)C)c4)cc23)c(-c2ccc(NC(=O)N(C)C)cc2)n1 [GSK-1070916] | 32% | 0.016 µM | 100% | 1.7 µM | 16% | sensitive | resistant | 1.41 | 100% | 1.68 µM | 61% | 0.014 µM | – | – | – | – | – | – | – |
| CC[C@@H]1C(=O)N(C)c2cnc(Nc3ccc(C(=O)N[C@H]4CC[C@H](N5CCN(CC6CC6)CC5)CC4)cc3OC)nc2N1C(C)C [volasertib] | 82% | 0.026 µM | 65% | 0.045 µM | −21% | resistant | resistant | 0.19 | 84% | 0.049 µM | 98% | 0.025 µM | – | – | – | – | – | – | – |
| CC(=O)O[C@@]12CO[C@@H]1C[C@H](O)[C@@]1(C)C(=O)[C@H](O)C3=C(C)[C@@H](OC(=O)[C@H](O)[C@@H](NC(=O)OC(C)(C)C)c4ccccc4)C[C@@](O)([C@@H](OC(=O)c4ccccc4)[C@H]21)C3(C)C [docetaxel] | – | – | – | – | – | – | – | – | – | – | – | – | 0.003 µM | 0.002 µM | 0.008 µM | 0.003 µM | 0.001 µM | 0.004 µM | effect on bone marrow or blood cell count (hematological toxicity) [12]: hematological toxicity was seen |
| COc1cccc2c1C(=O)c1c(O)c3c(c(O)c1C2=O)C[C@@](O)(C(C)=O)C[C@@H]3O[C@H]1C[C@H](N)[C@H](O)[C@H](C)O1 [daunorubicin] | – | – | – | – | – | – | – | – | – | – | – | – | – | – | – | – | – | – | IC50 ([13]; all ten T-ALL patient samples, three days): < 0.1 µM; IC50 ([13]; patient sample 491, three-day assay): 0.08 µM; IC50 ([13]; patient sample 1033, three-day assay): 0.043 µM; IC50 ([13]; patient sample 1816, three-day assay): 0.038 µM; IC50 ([13]; patient sample 2323, three-day assay): 0.08 µM; IC50 ([13]; patient sample 3594, three-day assay): 0.043 µM; IC50 ([13]; patient sample 3852, three-day assay): 0.061 µM; IC50 ([13]; patient sample 4023, three-day assay): 0.057 µM; IC50 ([13]; patient sample 4126, three-day assay): 0.071 µM; IC50 ([13]; patient sample 4992, three-day assay): 0.041 µM; IC50 ([13]; patient sample 10110, three-day assay): 0.042 µM |
| CC(C)C[C@H](NC(=O)[C@H](Cc1ccccc1)NC(=O)c1cnccn1)B(O)O [bortezomib] | – | – | – | – | – | – | – | – | – | – | – | – | – | – | – | – | – | – | IC50 ([13]; all ten T-ALL patient samples, three days, read-out: IC50): < 0.01 µM; IC50 ([13]; patient sample 491, three-day assay, read-out: IC50): 0.003 µM; IC50 ([13]; patient sample 1033, three-day assay, read-out: IC50): 0.003 µM; IC50 ([13]; patient sample 1816, three-day assay, read-out: IC50): 0.002 µM; IC50 ([13]; patient sample 2323, three-day assay, read-out: IC50): 0.003 µM; IC50 ([13]; patient sample 3594, three-day assay, read-out: IC50): 0.004 µM; IC50 ([13]; patient sample 3852, three-day assay, read-out: IC50): 0.004 µM; IC50 ([13]; patient sample 4023, three-day assay, read-out: IC50): 0.003 µM; IC50 ([13]; patient sample 4126, three-day assay, read-out: IC50): 0.003 µM; IC50 ([13]; patient sample 4992, three-day assay, read-out: IC50): 0.003 µM; IC50 ([13]; patient sample 10110, three-day assay, read-out: IC50): 0.003 µM |
| N.N.[Cl][Pt][Cl] [cisplatin] | – | – | – | – | – | – | – | – | – | – | – | – | 7.4 µM | 6.21 µM | 6.73 µM | 15.9 µM | 4.51 µM | 11.3 µM | – |
| N[C@@H](CSC(c1ccccc1)(c1ccccc1)c1ccccc1)C(=O)O [STLC, S-trityl-L-cysteine] | 90% | 2.04 µM | 93% | 1.34 µM | −6% | resistant | resistant | 0.34 | 95% | 1.4 µM | 99% | – | – | – | – | – | – | – | – |
| Cc1cc(N2CCOCC2)ccc1Nc1nc(NC2CCCCC2)c2[nH]cnc2n1 [MPI-047605] | 52% | – | 46% | – | −22% | resistant | sensitive | −0.07 | 51% | – | 72% | – | 8.39 µM | 0.234 µM | 0.22 µM | 0.198 µM | 0.899 µM | 7.33 µM | IC50 [1]: 0.208 µM; IC50 [14]: 0.448 µM; IC50 [2]: 0.199 µM; IC50 [4]: 0.191 µM; ka [15]: 9550 M⁻¹ s⁻¹; kd [15]: 0.291 s⁻¹; IC50 [5]: 0.233 µM |
